Measured values as given in patent publication US12139477B2, “Compounds, salts thereof and methods for treatment of diseases” (ACADIA PHARMACEUTICALS INC., priority 2017, dated 2024).

Biological target: 5HT2A (Homo sapiens, UniProt P28223)
Test: Receptor Selection and Amplification (R-SAT) functional assay
Assay type: cell-based
Design: expressed in transfected cells; host or cells: NIH3T3 cells, pSI mammalian expression vector
Settings: NIH3T3 cells, Ki from IC50 by Cheng and Prussoff; for Ki: read-out: 5-HT2a (pKi) (R-SAT) (converted)
From the text: Receptor Selection and Amplification (R-SAT) Assays. […] The IC50 determined in the RSAT assay was converted into a Ki value using the method of Cheng and Prussoff, Biochem Pharmacol., 1973 Dec. 1; 22(23):3099-108. pKi is the negative of the log(Ki).

Sequence of 5HT2A (P28223 whole entry): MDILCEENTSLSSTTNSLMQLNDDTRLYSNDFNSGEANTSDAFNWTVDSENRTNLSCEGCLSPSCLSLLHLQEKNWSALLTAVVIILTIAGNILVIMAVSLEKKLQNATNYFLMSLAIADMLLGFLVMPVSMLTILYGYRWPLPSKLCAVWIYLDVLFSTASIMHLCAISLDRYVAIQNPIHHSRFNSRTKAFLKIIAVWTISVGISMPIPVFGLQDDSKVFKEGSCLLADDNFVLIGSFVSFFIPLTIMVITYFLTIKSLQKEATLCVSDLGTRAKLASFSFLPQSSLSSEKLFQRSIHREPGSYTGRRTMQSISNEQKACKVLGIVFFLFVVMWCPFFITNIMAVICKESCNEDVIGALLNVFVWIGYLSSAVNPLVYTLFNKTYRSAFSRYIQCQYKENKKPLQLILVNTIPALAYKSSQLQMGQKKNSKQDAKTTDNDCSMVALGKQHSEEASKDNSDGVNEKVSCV

Ki [µM]	SMILES	5-HT2a (pKi) (R-SAT)
0.0631	CN1CCC(N(Cc2ccc(F)cc2F)C(=O)NCc2ccc(COCCO)c(F)c2)CC1 [Example 88, 1-[(2,4-difluorophenyl)methyl]-3-({3-fluoro-4-[(2-hydroxyethoxy)methyl]phenyl}methyl)-1-(1-methylpiperidin-4-yl)urea; Trifluoroacetic Acid]	–
0.0126	CC(C)COc1ccc(CNC(=O)N(Cc2ccc(C(F)(F)F)cc2O)C2CCN(C)CC2)cc1 [Example 90, 1-{[2-hydroxy-4-(trifluoromethyl)phenyl]methyl}-1-(1-methylpiperidin-4-yl)-3-{[4-(2-methylpropoxy)phenyl]methyl}urea; Trifluoroacetic Acid]	–
0.0158	COc1cc(F)ccc1CN(C(=O)NCc1ccc(OCC(C)C)cc1)C1CCN(C)CC1 [Example 91, 1-[(4-fluoro-2-methoxyphenyl)methyl]-1-(1-methylpiperidin-4-yl)-3-{[4-(2-methylpropoxy)phenyl]methyl}urea; Trifluoroacetic Acid]	–
0.0398	CN1CCC(N(Cc2ccc(F)cc2F)C(=O)NCc2ccc3[nH]ncc3c2)CC1 [Example 93, 1-[(2,4-difluorophenyl)methyl]-3-[(1H-indazol-5-yl)methyl]-1-(1-methylpiperidin-4-yl)urea; Trifluoroacetic Acid]	–
0.01	COCCCOc1ccc(CNC(=O)N(Cc2ccc(F)cc2F)C2CCN(C)CC2)cc1 [Example 96, 1-[(2,4-difluorophenyl)methyl]-3-{[4-(3-methoxypropoxy)phenyl]methyl}-1-(1-methylpiperidin-4-yl)urea; Trifluoroacetic Acid]	–
0.0398	CN1CCC(N(Cc2ccc(F)cc2F)C(=O)NCc2ccc([N+](=O)[O-])cc2F)CC1 [Example 97, 1-[(2,4-difluorophenyl)methyl]-3-[(2-fluoro-4-nitrophenyl)methyl]-1-(1-methylpiperidin-4-yl)urea; Trifluoroacetic Acid]	–
0.0794	CN1CCC(N(Cc2ccc(F)cc2F)C(=O)NCc2ccc(F)cc2OC(F)(F)F)CC1 [Example 99, 1-[(2,4-difluorophenyl)methyl]-3-{[4-fluoro-2-(trifluoromethoxy)phenyl]methyl}-1-(1-methylpiperidin-4-yl)urea; Trifluoroacetic Acid]	–
0.02	CN1CCC(N(Cc2ccc(F)cc2)C(=O)NCc2ccc(F)cc2F)CC1 [Example 100, 3-[(2,4-difluorophenyl)methyl]-1-[(4-fluorophenyl)methyl]-1-(1-methylpiperidin-4-yl)urea; Trifluoroacetic Acid]	–
0.0794	CC(C)COc1ccc(CNC(=O)N(Cc2ccc(F)cc2OC(F)F)C2CCN(C)CC2)cc1 [Example 101, 1-{[2-(difluoromethoxy)-4-fluorophenyl]methyl}-1-(1-methylpiperidin-4-yl)-3-{[4-(2-methylpropoxy)phenyl]methyl}urea; Trifluoroacetic Acid]	–
0.251	CC(C)COc1ccc(CNC(=O)N(Cc2ccc(F)cc2OC(F)(F)F)C2CCN(C)CC2)cc1 [Example 103, 1-{[4-fluoro-2-(trifluoromethoxy)phenyl]methyl}-1-(1-methylpiperidin-4-yl)-3-{[4-(2-methylpropoxy)phenyl]methyl}urea; Trifluoroacetic Acid]	–
0.0398	Cc1cc(F)ccc1CN(C(=O)NCc1ccc(OCC(C)C)cc1)C1CCN(C)CC1 [Example 104, 1-[(4-fluoro-2-methylphenyl)methyl]-1-(1-methylpiperidin-4-yl)-3-{[4-(2-methylpropoxy)phenyl]methyl}urea; Trifluoroacetic Acid]	–
0.1	COc1ccc(CN(C(=O)NCc2ccc(OCC(C)C)cc2)C2CCN(C)CC2)c(Cl)c1 [Example 105, 1-[(2-chloro-4-methoxyphenyl)methyl]-1-(1-methylpiperidin-4-yl)-3-{[4-(2-methylpropoxy)phenyl]methyl}urea; Trifluoroacetic Acid]	–
0.0501	CC(C)Oc1ccc(CNC(=O)N(Cc2ccc(Cl)cc2Cl)C2CCN(C)CC2)cc1 [Example 106, 1-[(2,4-dichlorophenyl)methyl]-1-(1-methylpiperidin-4-yl)-3-{[4-(propan-2-yloxy)phenyl]methyl}urea; Trifluoroacetic Acid]	–
0.0794	CC(C)Oc1ccc(CNC(=O)N(Cc2ccc(Cl)cc2Cl)C2CCNCC2)cc1 [Example 108, 1-[(2,4-dichlorophenyl)methyl]-1-(piperidin-4-yl)-3-{[4-(propan-2-yloxy)phenyl]methyl}urea; Trifluoroacetic Acid]	–
0.0251	CC(C)COc1ccc(CNC(=O)N(Cc2ccc(F)cc2Cl)C2CCNCC2)cc1 [Example 109, 1-[(2-chloro-4-fluorophenyl)methyl]-3-{[4-(2-methylpropoxy)phenyl]methyl}-1-(piperidin-4-yl)urea; Trifluoroacetic Acid]	–
0.0251	CC(C)Oc1ccc(CNC(=O)N(Cc2ccc(F)cc2Cl)C2CCNCC2)cc1 [Example 110, 1-[(2-chloro-4-fluorophenyl)methyl]-1-(piperidin-4-yl)-3-{[4-(propan-2-yloxy)phenyl]methyl}urea; Trifluoroacetic Acid]	–
0.0794	CC(C)COc1ccc(CNC(=O)N(Cc2ccc(Cl)cc2Cl)C2CCNCC2)cc1 [Example 111, 1-[(2,4-dichlorophenyl)methyl]-3-{[4-(2-methylpropoxy)phenyl]methyl}-1-(piperidin-4-yl)urea; Trifluoroacetic Acid]	–
0.0398	Cc1ccc(F)c(CN(C(=O)NCc2ccc(OC(C)C)cc2)C2CCN(C)CC2)c1F [Example 112, 1-[(2,6-difluoro-3-methylphenyl)methyl]-1-(1-methylpiperidin-4-yl)-3-{[4-(propan-2-yloxy)phenyl]methyl}urea; Trifluoroacetic Acid]	–
0.126	CC(C)Oc1ccc(CNC(=O)N(Cc2c(F)ccc(F)c2F)C2CCN(C)CC2)cc1 [Example 113, 1-(1-methylpiperidin-4-yl)-3-{[4-(propan-2-yloxy)phenyl]methyl}-1-[(2,3,6-trifluorophenyl)methyl]urea; Trifluoroacetic Acid]	–
0.00631	Cc1c(F)ccc(CN(C(=O)NCc2ccc(OC(C)C)cc2)C2CCN(C)CC2)c1F [Example 114, 1-[(2,4-difluoro-3-methylphenyl)methyl]-1-(1-methylpiperidin-4-yl)-3-{[4-(propan-2-yloxy)phenyl]methyl}urea; Trifluoroacetic Acid]	–
0.0631	Cc1cc(OC(C)C)ccc1CNC(=O)N(Cc1ccc(F)cc1F)C1CCN(C)CC1 [Example 116, 1-[(2,4-difluorophenyl)methyl]-3-{[2-methyl-4-(propan-2-yloxy)phenyl]methyl}-1-(1-methylpiperidin-4-yl)urea; Hemitartrate]	–
0.01	COc1ccc(CNC(=O)N(Cc2ccc(F)cc2F)C2CCN(C)CC2)cc1F [Example 118, 1-[(2,4-difluorophenyl)methyl]-3-[(3-fluoro-4-methoxyphenyl)methyl]-1-(1-methylpiperidin-4-yl)urea]	–
0.0631	CN1CCC(N(Cc2ccc(F)cc2F)C(=O)NCc2ccc(O)cc2F)CC1 [Example 119, 1-[(2,4-difluorophenyl)methyl]-3-[(2-fluoro-4-hydroxyphenyl)methyl]-1-(1-methylpiperidin-4-yl)urea]	–
0.00794	CN1CCC(N(Cc2ccc(F)cc2F)C(=O)NCc2ccc(Oc3ccccc3)cc2)CC1 [Example 120, 3-[(2,4-difluorophenyl)methyl]-3-(1-methylpiperidin-4-yl)-1-[(4-phenoxyphenyl)methyl]urea]	–
0.126	COc1ccc(CN(C(=O)NCc2ccc(OCC(C)C)cc2)C2CCN(C)CC2)c(C(F)(F)F)c1 [Example 121, 3-{[4-methoxy-2-(trifluoromethyl)phenyl]methyl}-3-(1-methylpiperidin-4-yl)-1-{[4-(2-methylpropoxy)phenyl]methyl}urea]	–
0.00794	COc1ccc(CN(C(=O)NCc2ccc(OC(C)C)cc2)C2CCN(C)CC2)c(F)c1 [Example 122, 1-[(2-fluoro-4-methoxyphenyl)methyl]-1-(1-methylpiperidin-4-yl)-3-{[4-(propan-2-yloxy)phenyl]methyl}urea; Trifluoroacetic Acid]	–
–	CCCCOc1ccc(CNC(=O)N(Cc2ccc(F)cc2F)C2CCNCC2)cc1.CCCCOc1ccc(CNC(=O)N(Cc2ccc(F)cc2F)C2CCNCC2)cc1.O=C(O)C(O)C(O)C(=O)O [Example 123, 3-[(4-butoxyphenyl)methyl]-1-[(2,4-difluorophenyl)methyl]-1-(piperidin-4-yl)urea; Hemitartrate]	7.8
–	COc1ccc(CNC(=O)N(Cc2ccc(F)cc2F)C2CCNCC2)cc1.COc1ccc(CNC(=O)N(Cc2ccc(F)cc2F)C2CCNCC2)cc1.O=C(O)C(O)C(O)C(=O)O [Example 126, 1-[(2,4-difluorophenyl)methyl]-3-[(4-methoxyphenyl)methyl]-1-(piperidin-4-yl)urea; Hemitartrate]	8.1
–	CCOc1ccc(CNC(=O)N(Cc2ccc(F)cc2F)C2CCNCC2)cc1.CCOc1ccc(CNC(=O)N(Cc2ccc(F)cc2F)C2CCNCC2)cc1.O=C(O)C(O)C(O)C(=O)O [Example 127, 3-[(2,4-difluorophenyl)methyl]-1-[(4-ethoxyphenyl)methyl]-3-(piperidin-4-yl)urea; Hemitartrate]	8.2
0.00794	CN1CCC(N(Cc2ccc(F)cc2F)C(=O)NCc2ccc3c(c2)OCO3)CC1 [Example 128, 3-[(2H-1,3-benzodioxol-5-yl)methyl]-1-[(2,4-difluorophenyl)methyl]-1-(1-methylpiperidin-4-yl)urea]	–

SMILES	Ki [µM]	5-HT2a (pKi) (R-SAT)
CCCCOc1ccc(CNC(=O)N(Cc2ccc(F)cc2F)C2CCN(C)CC2)cc1 [Example 124, 3-[(4-butoxyphenyl)methyl]-1-[(2,4-difluorophenyl)methyl]-1-(1-methylpiperidin-4-yl)urea]	0.01	–
